SMILES strings stand for the structures.

One data set concerns SU-DHL-6 cells. Description: In vitro cell proliferation assay in SU-DHL-6 cell line (CCK-8). It is filed as cell-based. To be noted: Homo sapiens, SU-DHL-6, 72 h.
Another data set deals with PI3K-β (Homo sapiens, UniProt P42338). Description: Transcreener KINASE Assay, fluorescent determination of PI3K enzyme activity. The conditions noted are these: for inhibition at 1 µM: read-out: PI3K-β IH % (inhibition rate); for inhibition at 1 µM / PI3K-β IH % (inhibition rate): at 1 μM. It is filed as biochemical.
Sequence of PI3K-β (P42338 whole entry, looked up): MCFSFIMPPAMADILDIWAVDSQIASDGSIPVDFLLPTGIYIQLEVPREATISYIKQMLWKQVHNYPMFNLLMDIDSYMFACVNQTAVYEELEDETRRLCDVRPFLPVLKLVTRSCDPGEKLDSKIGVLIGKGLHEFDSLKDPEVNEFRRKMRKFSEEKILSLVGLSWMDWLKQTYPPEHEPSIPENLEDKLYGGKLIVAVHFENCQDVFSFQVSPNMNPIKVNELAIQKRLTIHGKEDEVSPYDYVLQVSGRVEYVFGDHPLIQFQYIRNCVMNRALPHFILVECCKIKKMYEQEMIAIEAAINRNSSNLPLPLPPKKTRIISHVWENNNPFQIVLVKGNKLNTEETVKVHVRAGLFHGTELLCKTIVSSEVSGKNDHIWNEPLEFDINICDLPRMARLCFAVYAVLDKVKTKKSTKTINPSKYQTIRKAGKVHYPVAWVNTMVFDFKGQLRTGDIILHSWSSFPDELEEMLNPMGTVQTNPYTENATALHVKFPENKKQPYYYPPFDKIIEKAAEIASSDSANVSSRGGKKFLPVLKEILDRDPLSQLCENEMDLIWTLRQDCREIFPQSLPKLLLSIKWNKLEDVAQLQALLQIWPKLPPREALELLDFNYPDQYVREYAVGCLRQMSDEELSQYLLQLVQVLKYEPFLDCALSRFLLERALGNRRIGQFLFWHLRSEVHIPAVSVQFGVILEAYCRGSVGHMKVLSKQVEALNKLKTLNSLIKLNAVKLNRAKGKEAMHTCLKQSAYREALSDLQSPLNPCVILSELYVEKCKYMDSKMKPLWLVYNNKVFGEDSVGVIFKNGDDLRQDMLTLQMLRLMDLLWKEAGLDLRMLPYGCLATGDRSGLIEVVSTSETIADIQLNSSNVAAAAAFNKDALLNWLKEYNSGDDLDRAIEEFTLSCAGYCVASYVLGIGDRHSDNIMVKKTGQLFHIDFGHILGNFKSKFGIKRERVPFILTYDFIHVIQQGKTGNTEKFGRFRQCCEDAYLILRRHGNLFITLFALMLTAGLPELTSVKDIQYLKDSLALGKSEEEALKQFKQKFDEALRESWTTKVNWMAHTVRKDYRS
For data set [1], the system named is PI3Kδ signaling in basophils. Put plainly: Inhibition of PI3Kδ signaling in basophils from human whole blood. It is filed as cell-based. To be noted: human whole blood, anti-human IgE stimulation, CD63; read-out: IC50, inhibition of PI3Kδ signaling in basophils.
Method: Methods • 1) Heparinized human whole blood was mixed and pipetted into the 96 well v-bottom plate, 100 μL per well. • 2) 10 μL of stimulation buffer (1 mg/mL stock, final concentration of Recombinant human IL-3: 20 ng/mL) was added to the whole blood samples of each well and vortex gently. […] Vortex all the wells once more and incubate for 20 min at 37° C. • 5) Labeling with staining antibody: Degranulation was stopped by incubating the samples on ice for 5 min. 6 μL of staining antibody mixture (anti-CD63-FITC and anti-IgE-PE) was added into each well. Vortex and incubate the wells for 20 min in an ice bath, covered to prevent exposure to light. • 6) The whole blood samples were lysed with 300 uL RBC lysis (pre-warmed to room temperature, 20 to 25° C.). Vortex and incubate the samples for 15 min at room temperature. Spin down cells (5 min, 250×g, 4° C.). The supernatant was aspirated leaving approximately 100 μL in each well. • 7) The blood samples were lysed once more as step 6). • 8) Washing: The samples are washed once with 0.5 mL of washing solution. The plate was centrifuged (5 min, 250×g, 4° C.). The supernatant was aspirated leaving approximately 100 μL in each well. The sample in each well was washed and centrifuged once more as above. • 9) 200 μL of fixing solution (1% papraledehyde in 1% BSA/PBS) was added into each well.
(§2) Data was analyzed and IC50 values were generated using the add-in software for Microsoft Excel, Xlfit™ (version 5.3).
A further data set has as its target PI3K-δ (p110δ/p85α) (Homo sapiens (Human), UniProt O00329). Put plainly: Transcreener KINASE Assay, fluorescent determination of PI3K enzyme activity. It is filed as biochemical.
The next data set deals with PI3K-α (p110α/p85α) (Homo sapiens (Human), UniProt P42336). Described as above. It is filed as biochemical. To be noted: for inhibition at 1 µM: read-out: PI3K-α IH % (inhibition rate). How it is done:
Inhibition rates were calculated as follow: IH %=(ADP amount under 2% DMSO well−ADP amount under test compound well)/ADP amount under 2% DMSO well×100%.

The target in the next data set is PI3K-γ (p110γ) (Homo sapiens (Human), UniProt P48736). The description is as above. It is filed as biochemical. To be noted: for inhibition at 1 µM: read-out: PI3K-γ IH % (inhibition rate).
Sequence of PI3K-γ (p110γ) (P48736 whole entry, species assumed): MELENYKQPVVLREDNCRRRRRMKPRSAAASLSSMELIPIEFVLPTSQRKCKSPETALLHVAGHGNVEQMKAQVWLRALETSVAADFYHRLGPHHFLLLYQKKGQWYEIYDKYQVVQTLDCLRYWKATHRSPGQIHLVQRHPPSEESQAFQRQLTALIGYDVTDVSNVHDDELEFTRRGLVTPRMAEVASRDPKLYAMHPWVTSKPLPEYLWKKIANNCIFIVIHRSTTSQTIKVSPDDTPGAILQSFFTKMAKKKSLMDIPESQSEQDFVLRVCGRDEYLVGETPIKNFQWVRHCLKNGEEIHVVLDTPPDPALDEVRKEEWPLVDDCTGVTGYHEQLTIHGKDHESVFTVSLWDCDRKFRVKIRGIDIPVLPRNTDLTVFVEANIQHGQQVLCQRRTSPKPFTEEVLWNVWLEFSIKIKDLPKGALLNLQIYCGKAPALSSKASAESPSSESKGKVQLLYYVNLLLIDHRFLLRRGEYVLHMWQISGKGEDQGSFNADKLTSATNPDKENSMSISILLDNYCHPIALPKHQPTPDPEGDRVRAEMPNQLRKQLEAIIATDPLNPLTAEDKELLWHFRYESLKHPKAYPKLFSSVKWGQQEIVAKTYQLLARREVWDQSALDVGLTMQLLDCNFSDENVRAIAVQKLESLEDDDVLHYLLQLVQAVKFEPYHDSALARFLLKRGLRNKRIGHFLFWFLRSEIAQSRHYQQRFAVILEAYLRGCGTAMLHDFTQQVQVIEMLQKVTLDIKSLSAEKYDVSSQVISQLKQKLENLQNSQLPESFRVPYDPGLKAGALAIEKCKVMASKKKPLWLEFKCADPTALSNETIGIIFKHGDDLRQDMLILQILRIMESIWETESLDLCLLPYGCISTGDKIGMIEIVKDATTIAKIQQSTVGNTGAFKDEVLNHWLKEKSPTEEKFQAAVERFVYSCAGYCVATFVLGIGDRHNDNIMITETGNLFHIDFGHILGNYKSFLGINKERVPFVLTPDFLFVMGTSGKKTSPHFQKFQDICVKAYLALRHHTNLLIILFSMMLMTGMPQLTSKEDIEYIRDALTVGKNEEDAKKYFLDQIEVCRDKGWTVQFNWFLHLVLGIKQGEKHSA
Data set [2] has as its system AKT phosphorylation (p-AKT Ser473) in Ramos cells. Put plainly: Inhibition of AKT phosphorylation in Ramos cell line (anti-IgM stimulated). It is filed as cell-based. To be noted: Homo sapiens; Ramos cells, anti-IgM stimulation; read-out: IC50, inhibition of AKT phosphorylation.
Method: 6×10^4/mL Ramos cells (ATCC, CRL-1596; cells were cultured in RPMI1640 media with 10% FBS) were seeded into a 96-well plate (Beckman Dickinson, No. 356692) at 80 uL/well, 4,800 cells/well. After incubation for 3 hr at 37° C. under 5% CO2, Ramos cells were treated with 10 uL/well various concentrations of test compound (final concentrations of the test compound: 1 uM, 0.3 uM, 0.1 uM, 0.037 uM, 0.012 uM, 0.0041 uM, 0.0014 uM and 0.0005 uM) or 0.3% DMSO for 30 min, and then were stimulated with 10 uL/well 1 ug/ml Anti-IgM (Jackson Immunoresearch, 709-006-073) for 15-20 min. • 1) Cells were fixed with 100 μL of 4% pre-warmed Paraformaldehyde (2% final concentration), and incubated for 45 min at room temperature. • 2) The paraformaldehyde solution was removed. 100 μL of ice-cold methanol was added into each well and the plate was left at 4° C. for 30 min. • 3) The cells were washed for three times with 160 μL PBS. • 4) 40 μL 1:350 dilution of Rabbit anti-p-AKT(Ser^473) antibody (Cell Signaling Technology, 4060L) in antibody dilution buffer (1% BSA, in PBS) were added into each well. The plate was inculpated overnight at 4° C. • 5) The cells were washed for 3 times with 160 uL PBS. • 6) 45 μL of Goat anti-rabbit IgG Alexa488 antibody (Invitrogen, A11034) at a 1:1,000 dilution in antibody dilution buffer (1% BSA, in PBS) were added into each well. The plate was covered with foil to keep out of light and was incubated for 90 min at room temperature. • 7) The cells were washed for 3 times with 160 uL PBS. • 8) 50 μL of 1.5 μM Propidium Iodide (Sigma: P4170) solution was added into each well to determine cell number (1.5 mM Propidium iodide stock was diluted with 1:1,000 in PBS, and the final concentration was 1.5 μM). • 9) The plate was incubated at room temperature for 30 min and then was sealed with a cover-seal. • 10) The plate was loaded into the Acumen Explorer and scan with the appropriate instrument settings.
as §2
Data set [3] is described as follows: Plasma levels of compound 4 after oral administration. It counts as in vivo, Wistar rats. The conditions noted are these: dose range 0.01 mg/kg to 3 mg/kg. As for the experimental part:
(§1) Wistar rats (female, 6-8 weeks old) were used in the experiments. The dose dependency, time course study and PKPD relationship of compound 4 were conducted in normal Wistar rats. […] The control group (6 rats) was treated with the vehicle alone. At designated time points (1 hour, 8 hours, 16 hours and 24 hours after administration), blood samples were collected from rats via retro-orbital bleeding under isofluorane anesthesia into heparinized tubes. The heparin anti-coagulated blood was mixed with anti-rat-IgD, then was incubated at 37° C. under 5% CO2 overnight. Fluorescence signal for CD86 on B220 (B cells) positive cells was detected using a flow cytometer (BD FACSCalibur, BD Biosciences) and data were analyzed by CellQuest software. Plasma was collected to measure compound 4 levels.

Data set [4] concerns collagen-induced arthritis, paw volume. Description: Rat collagen II induced arthritis (CIA) model. It is filed as in vivo, Wistar rats. How it is done: Rat collagen induced arthritis is an experimental model of polyarthritis that has been widely used for nonclinical testing of numerous anti-arthritic agents that are either under nonclinical or clinical investigation or are currently used as therapeutics in this disease. […] Wistar rats were immunized intradermally with 200 μg bovine collagen H emulsified in Freund's incomplete adjuvant (IFA, Sigma. US) on day 0 and day 7. The hind paw volumes were measured before and after the immunization. […] The naive group was not administered. YiSaiPu (10 mg/kg), a human tumor necrosis factor receptor p75 Fc fusion protein, was administered with intraperitoneal injection on days 10, 12 and 14 as a positive control. The study was terminated on day 18.

Data set [5] relates to B cells (B220+) activation (CD86). Description: Anti-IgD antibody induced B cells activation in rat whole blood, ex vivo after oral administration. Details: species or system Wistar rats. How it is done:
Activation of B cells (B220+) in rat whole, blood with anti-IgD antibody leading to activation via Ig receptors is known to involve PI3K pathways and sensitive to modulation by PI3Kδ inhibitors, A pharmacodynamics assay was developed to assess activity of PI3Kδ inhibitors ex vivo following oral administration of inhibitors to rats.
as §1
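For PI3K-β IH % (inhibition rate) in this document: recombinant PI3K enzyme reaction, 80 min at room temperature, ADP formed detected by far-red competitive fluorescence polarization immunoassay, inhibition relative to ADP in 2% DMSO control wells.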
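For PI3K-γ IH % (inhibition rate) in this document: ADP produced by p110γ kinase reaction, 80 min at room temperature, detected by far-red fluorescence polarization immunoassay, inhibition relative to 2% DMSO control wells.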

Sequence of PI3K-δ (p110δ/p85α) (O00329 whole entry, species assumed): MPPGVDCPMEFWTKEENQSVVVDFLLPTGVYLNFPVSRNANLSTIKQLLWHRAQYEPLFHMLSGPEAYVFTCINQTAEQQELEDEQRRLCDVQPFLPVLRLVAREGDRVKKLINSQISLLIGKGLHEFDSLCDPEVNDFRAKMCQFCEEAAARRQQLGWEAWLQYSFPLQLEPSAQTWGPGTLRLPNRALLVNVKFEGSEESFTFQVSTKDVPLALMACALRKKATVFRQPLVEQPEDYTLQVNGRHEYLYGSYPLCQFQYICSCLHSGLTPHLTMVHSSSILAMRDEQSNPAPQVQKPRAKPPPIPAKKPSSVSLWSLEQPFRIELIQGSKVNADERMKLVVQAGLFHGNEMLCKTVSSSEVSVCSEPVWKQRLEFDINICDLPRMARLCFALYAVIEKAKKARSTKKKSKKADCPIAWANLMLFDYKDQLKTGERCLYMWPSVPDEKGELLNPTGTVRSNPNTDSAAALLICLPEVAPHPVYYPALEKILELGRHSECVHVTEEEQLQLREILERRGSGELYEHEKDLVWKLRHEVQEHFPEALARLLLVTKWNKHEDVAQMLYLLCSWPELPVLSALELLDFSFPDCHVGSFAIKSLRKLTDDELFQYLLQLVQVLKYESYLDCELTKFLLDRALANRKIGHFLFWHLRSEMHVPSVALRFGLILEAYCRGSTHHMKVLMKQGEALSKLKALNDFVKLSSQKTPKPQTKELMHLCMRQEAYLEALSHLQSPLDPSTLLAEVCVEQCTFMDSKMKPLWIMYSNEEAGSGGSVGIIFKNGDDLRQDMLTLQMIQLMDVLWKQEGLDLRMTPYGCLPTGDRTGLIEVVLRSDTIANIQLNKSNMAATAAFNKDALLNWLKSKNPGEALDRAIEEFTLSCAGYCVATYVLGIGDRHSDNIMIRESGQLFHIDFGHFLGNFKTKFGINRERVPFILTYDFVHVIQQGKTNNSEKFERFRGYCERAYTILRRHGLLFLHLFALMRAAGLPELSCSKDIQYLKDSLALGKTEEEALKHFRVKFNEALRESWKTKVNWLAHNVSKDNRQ
Sequence of PI3K-δ (p110δ/p85α) (P27986 whole entry partner, species assumed): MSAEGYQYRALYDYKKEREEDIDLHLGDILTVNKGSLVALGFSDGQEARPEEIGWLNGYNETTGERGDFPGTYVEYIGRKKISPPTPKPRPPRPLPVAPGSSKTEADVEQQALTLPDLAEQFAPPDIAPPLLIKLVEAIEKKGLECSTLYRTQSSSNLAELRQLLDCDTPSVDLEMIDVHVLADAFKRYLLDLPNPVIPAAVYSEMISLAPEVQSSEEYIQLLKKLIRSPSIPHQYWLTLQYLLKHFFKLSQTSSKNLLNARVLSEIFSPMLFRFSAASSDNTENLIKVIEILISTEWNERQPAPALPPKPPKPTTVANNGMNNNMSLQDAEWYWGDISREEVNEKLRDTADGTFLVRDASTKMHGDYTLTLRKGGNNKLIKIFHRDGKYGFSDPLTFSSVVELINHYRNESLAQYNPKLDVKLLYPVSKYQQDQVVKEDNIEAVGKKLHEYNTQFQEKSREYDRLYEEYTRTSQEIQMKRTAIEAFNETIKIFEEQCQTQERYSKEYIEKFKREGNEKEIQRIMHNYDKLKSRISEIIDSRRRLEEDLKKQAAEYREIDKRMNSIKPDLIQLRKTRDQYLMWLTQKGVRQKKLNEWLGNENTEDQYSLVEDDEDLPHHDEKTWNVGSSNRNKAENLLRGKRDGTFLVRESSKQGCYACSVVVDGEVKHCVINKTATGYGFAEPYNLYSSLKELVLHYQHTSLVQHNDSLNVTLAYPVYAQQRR
Sequence of PI3K-α (p110α/p85α) (P42336 whole entry, species assumed): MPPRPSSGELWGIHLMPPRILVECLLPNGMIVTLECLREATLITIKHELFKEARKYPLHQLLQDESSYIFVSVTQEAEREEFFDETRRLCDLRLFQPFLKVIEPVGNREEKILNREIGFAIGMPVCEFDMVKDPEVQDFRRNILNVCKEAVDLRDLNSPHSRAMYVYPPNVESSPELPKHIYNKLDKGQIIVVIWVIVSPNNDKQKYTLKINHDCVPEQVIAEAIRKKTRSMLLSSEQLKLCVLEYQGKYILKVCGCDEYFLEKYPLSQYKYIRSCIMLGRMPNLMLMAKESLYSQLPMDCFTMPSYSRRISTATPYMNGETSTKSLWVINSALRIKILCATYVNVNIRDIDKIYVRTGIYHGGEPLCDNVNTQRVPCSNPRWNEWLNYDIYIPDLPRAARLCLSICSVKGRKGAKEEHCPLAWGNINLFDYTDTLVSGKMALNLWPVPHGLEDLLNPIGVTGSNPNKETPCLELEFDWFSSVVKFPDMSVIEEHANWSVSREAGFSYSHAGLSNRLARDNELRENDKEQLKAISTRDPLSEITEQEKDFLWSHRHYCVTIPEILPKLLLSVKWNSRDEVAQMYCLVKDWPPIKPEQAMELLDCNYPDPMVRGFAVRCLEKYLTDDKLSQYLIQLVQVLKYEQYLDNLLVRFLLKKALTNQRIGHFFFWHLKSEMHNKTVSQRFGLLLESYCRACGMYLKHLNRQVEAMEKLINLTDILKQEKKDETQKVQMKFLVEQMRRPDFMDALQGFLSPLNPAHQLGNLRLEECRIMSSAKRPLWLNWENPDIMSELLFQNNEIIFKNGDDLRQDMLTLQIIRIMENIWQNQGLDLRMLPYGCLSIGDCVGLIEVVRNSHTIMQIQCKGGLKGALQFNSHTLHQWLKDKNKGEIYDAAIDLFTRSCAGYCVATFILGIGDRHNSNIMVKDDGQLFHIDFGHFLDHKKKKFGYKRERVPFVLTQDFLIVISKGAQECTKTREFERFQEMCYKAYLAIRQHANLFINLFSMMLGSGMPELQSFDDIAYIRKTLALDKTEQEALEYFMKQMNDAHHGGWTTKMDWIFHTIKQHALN
Sequence of PI3K-α (p110α/p85α) (P27986 whole entry partner, species assumed): as the sequence (P27986 whole entry partner, species assumed) above
Method for PI3K-β: (§3) It is a universal, homogenous, high throughput screening (HTS) technology using a far-red, competitive fluorescence polarization immunoassay based on the detection of ADP to monitor the activity of enzymes that catalyze group transfer reactions. […] The reaction mixture was added into desired wells of a 96-well plate. The plate was sealed and incubated for 80 min at room temperature. • 2) Next, 25 uL ADP detection mix was added into each well. The plate was sealed again and incubated for 60 min at room temperature. Then fluorescence polarization was measured by Tecan Infinite F500 Reader.
as §2
Method for PI3K-γ (p110γ): as §3, §2
Method for PI3K-δ (p110δ/p85α): as §3, §2
Method for SU-DHL-6 cells: Growth inhibition assays were carried out using 10% FBS supplemented media. Cells were seeded at a concentration of 15000 cells/well in a 96 well plate. Test compound dilution at different concentrations (final concentrations of the test compound: 1 uM, 0.3 uM, 0.1 uM, 0.037 uM, 0.012 uM, 0.0041 uM, 0.0014 uM and 0.0005 uM) were added after 24 hours. Growth was assessed using Cell Counting Kit-8 (CCK-8) (Dojindo, Cat#CK04) after the test compound were incubated for 72 h. Absorbance was read at the wave length 450 nm on Multiskan MK3 machine (Thermo).
as §2

`CCC(Nc1ncnc(N)c1C#N)c1cc2ncc(Cl)n2nc1-c1ccccc1F` (stereo not shown) [Compound 19]: the IC50 (as a rule, the point on the concentration scale where inhibition reaches its midpoint) was 0.023 µM with SU-DHL-6 cells; 1.07 µM against PI3K-β; 0.016 µM in data set [1]; 0.002 µM at PI3K-δ (p110δ/p85α); more than 1 µM against PI3K-α (p110α/p85α); 1.97 µM against PI3K-γ (p110γ).

As to `C[C@H](Nc1ncnc(N)c1C#N)c1cc2ncc(Cl)n2nc1-c1cccc(F)c1` [Compound 15], the 50% inhibitory concentration (IC50) was 0.002 µM with SU-DHL-6 cells; 0.002 µM in data set [1]; 0.001 µM against PI3K-δ (p110δ/p85α); 0.0005 µM in data set [2]; more than 1 µM against PI3K-α (p110α/p85α); 0.393 µM against PI3K-γ (p110γ). For the same compound, the inhibition – broadly, the relative decrease from the control value, in per cent – at 1 µM on PI3K-β was 59%.

For the compound `C[C@H](Nc1ncnc2[nH]cnc12)c1cc2ncc(Cl)n2nc1-c1ccccc1F` [Compound 13], the concentration for half-maximal inhibition (IC50) is 0.011 µM in the data set with SU-DHL-6 cells; 1.92 µM at PI3K-β; 0.01 µM in [1]; 0.003 µM against PI3K-δ (p110δ/p85α); 0.004 µM in data set [2]; more than 1 µM on PI3K-α (p110α/p85α). At PI3K-γ (p110γ), the half-inhibitory concentration (IC50) came out at 0.484 µM.

With `CCC(Nc1ncnc(N)c1C#N)c1cc2ncc(Cl)n2nc1-c1ccccn1` (stereo not shown) [Compound 29], the IC50 in the data set on SU-DHL-6 cells was determined as 0.011 µM; against PI3K-β, 0.174 µM; at PI3K-δ (p110δ/p85α), 0.003 µM. The “PI3K-γ IH % (inhibition rate)” value on PI3K-γ (p110γ) (at 1 μM) came to 35%.

With `CCC(Nc1ncnc2[nH]cnc12)c1cc2ncc(Cl)n2nc1-c1ccccc1` (stereo not shown) [Compound 18], the IC50 was 0.026 µM in the data set on SU-DHL-6 cells; 0.088 µM in data set [1]; 0.004 µM on PI3K-δ (p110δ/p85α); more than 1 µM on PI3K-α (p110α/p85α); 0.617 µM against PI3K-γ (p110γ). The “PI3K-β IH % (inhibition rate)” value on PI3K-β was 42%.

`CCC(Nc1ncnc2[nH]cnc12)c1cc2ncc(Cl)n2nc1-c1ccccc1F` (single isomer, unassigned) [Compound 25]: the half-maximal inhibitory concentration (IC50) in the data set on SU-DHL-6 cells was 0.032 µM; in data set [1] it was 0.037 µM; in data set [2] it was 0.005 µM. Further, the “PI3K-β IH % (inhibition rate)” value on PI3K-β stood at 22.8%.

On to `CCC(Nc1ncnc(N)c1C#N)c1cc2ncc(Cl)n2nc1-c1cccc(F)c1` (stereo not shown) [Compound 24], for which the half-inhibitory concentration (IC50) with SU-DHL-6 cells worked out at 0.011 µM; in [1], 0.011 µM; against PI3K-δ (p110δ/p85α), 0.002 µM; in data set [2], 0.007 µM. In addition, the inhibition at 1 µM on PI3K-β came out at 46.6%; on PI3K-γ (p110γ) (at 1 μM), 44.5%.

As for `Cc1cnc2cc([C@H](C)Nc3ncnc(N)c3C#N)c(-c3ccccc3)nn12` [Compound 22], the IC50 was 0.019 µM with SU-DHL-6 cells; 0.002 µM in data set [1]; 0.002 µM against PI3K-δ (p110δ/p85α); 0.004 µM in data set [2]; 0.322 µM against PI3K-γ (p110γ). In addition, the inhibition at 1 µM amounted to 76.7% on PI3K-β and 13.6% at PI3K-α (p110α/p85α).

As for `C[C@@H](c1cc2ncc(Cl)n2nc1-c1ccccc1)n1cnc2c(N)ncnc21` [Compound 20, (S)-9-(1-(3-chloro-6-phenylimidazo[1,2-b]pyridazin-7-yl)ethyl)-9H-purin-6-amine], the half-inhibitory concentration (IC50) with SU-DHL-6 cells is 0.262 µM; in [1], 0.397 µM; at PI3K-δ (p110δ/p85α), 0.073 µM; at PI3K-α (p110α/p85α) it was more than 1 µM. For the same compound, the inhibition at 1 µM on PI3K-β is 17.4%; on PI3K-γ (p110γ) (at 1 μM) it was 43.1%.

As to `C[C@H](Nc1ncnc2[nH]cnc12)c1cc2ncc(Cl)n2nc1-c1cccc(F)c1` [Compound 16], the inhibition at 1 µM at PI3K-β amounted to 27.5%. For the same compound, the figures for the IC50 against PI3K-δ (p110δ/p85α), at PI3K-α (p110α/p85α) and against PI3K-γ (p110γ) were 0.003 µM, more than 1 µM and 0.326 µM, respectively.

Take `C[C@H](Nc1ncnc(N)c1C#N)c1cc2ncc(Cl)n2nc1-c1ccccn1` [Compound 8, (S)-4-amino-6-((1-(3-chloro-6-(pyridin-2-yl)imidazo[1,2-b]pyridazin-7-yl)ethyl)amino)pyrimidine-5-carbonitrile]: the IC50 is 0.031 µM in the data set on SU-DHL-6 cells, 0.009 µM in data set [1], 0.01 µM on PI3K-δ (p110δ/p85α) and more than 1 µM against PI3K-α (p110α/p85α). Also, the inhibition at 1 µM on PI3K-β is 37.7%; at PI3K-γ (p110γ) (at 1 μM), -1.4%.

For `Cc1cnc2cc([C@H](C)Nc3ncnc4[nH]cnc34)c(-c3ccccc3)nn12` [Compound 23], the IC50 is 0.078 µM in the data set on SU-DHL-6 cells; 0.006 µM in [1]; 0.006 µM against PI3K-δ (p110δ/p85α); 0.012 µM in data set [2]; 0.343 µM against PI3K-γ (p110γ). Also, the figures for the inhibition at 1 µM on PI3K-β and on PI3K-α (p110α/p85α) were 28.7% and 3.2%, respectively.

In the case of `C[C@H](Nc1ncnc(N)c1C#N)c1cc2ncc(Cl)n2nc1-c1ccccc1` [Compound 4, (S)-4-amino-6-((1-(3-chloro-6-phenylimidazo[1,2-b]pyridazin-7-yl)ethyl)amino)pyrimidine-5-carbonitrile], the Plasma levels entry in data set [3] is on record as “dose-proportional”. Also, the “mean paw volume at end of treatment vs vehicle-treated diseased animals” value in [4] (PO QD 7 days, p<0.01 except at lowest dose 0.03 mg/kg) is “significantly decreased”. Further, the “effects on parameters associated with established type II collagen-induced arthritis” value in data set [4] (daily oral treatment) is recorded as “dose-dependent beneficial effects”. Further, the IC50 in [2] is 0.002 µM; against PI3K-α (p110α/p85α), more than 1 µM. Moreover, the ED50 (in general, the dose at which the effect has come halfway, by size or by number of responders) in data set [5] (Rattus norvegicus, B-cell, at 2 hr post-dose, oral) was less than 0.01 mg/kg. In addition, the inhibition at 0.1 mg/kg in [5] (Rattus norvegicus, B-cell, single oral 0.1 mg/kg dose, up to 24 hr) is more than 90%. Besides, the “anti-IgD induced B cell activation in rat whole blood, ex vivo” value in data set [5] (oral, dose range 0.01 to 3 mg/kg, p<0.01) was “inhibited anti-IgD induced B cell activation”.

As for `CC[C@H](Nc1ncnc(N)c1C#N)c1cc2ncc(Cl)n2nc1-c1ccccc1` [Compound 6, (S)-4-amino-6-((1-(3-chloro-6-phenylimidazo[1,2-b]pyridazin-7-yl)propyl)amino)pyrimidine-5-carbonitrile], the half-inhibitory concentration (IC50) in the data set with SU-DHL-6 cells was 0.003 µM; against PI3K-β it was 0.303 µM; in [1] it was 0.006 µM; against PI3K-δ (p110δ/p85α), 0.001 µM; in data set [2] it was 0.0003 µM; against PI3K-α (p110α/p85α), more than 1 µM. The inhibition at 1 µM at PI3K-γ (p110γ) (at 1 μM) is 61.1%.

Regarding `C[C@H](Nc1ncnc2[nH]ccc12)c1cc2ncc(Cl)n2nc1-c1ccccc1` [Compound 17], the 50% inhibitory concentration (IC50) with SU-DHL-6 cells is 0.172 µM; in data set [1] it was 0.618 µM; against PI3K-δ (p110δ/p85α) it was 0.026 µM; against PI3K-α (p110α/p85α) it was more than 1 µM. Further, the inhibition at 1 µM on PI3K-β was 15.8%; on PI3K-γ (p110γ) (at 1 μM), 61.2%.

The values are drawn from patent US10208066B2, “Imidazopyridazine compounds and their use” (HUTCHISON MEDIPHARMA LIMITED, priority 2014, dated 2019).
